Assay results taken from ChEMBL document CHEMBL1955732, “Synthesis and biological evaluation of 21-arylidenepregnenolone derivatives as neuroprotective agents” (Bioorg Med Chem Lett, 2012).
Calls of active or inactive are those of the source. The rule behind the calls is not given here.

Tests used:
[1] = Solubility of the compound at 10 uM; type: physicochemical
[2] = Solubility of the compound at 1 uM; type: physicochemical
SH-SY5Y [3] = experiment: Neuroprotective activity against oxygen-glucose deprivation-induced human SH-SY5Y cells assessed as cell viability at 5 uM preincubated for 2 hrs prior oxygen-glucose deprivation challenge for 1 hr measured after 24 hrs incubation under normal condition by MTT assay; type: functional; details: read-out: Activity
PC-12 [4] = experiment: Neuroprotective activity against Abeta25-35-induced […] cells assessed as cell viability at 1 uM preincubated for 2 hrs prior Abeta25-35 challenge measured after 24 hrs by MTT assay; type: functional; details: Rattus norvegicus; for viability at 1 µM: read-out: Activity
PC-12 [5] = experiment: Neuroprotective activity against Abeta25-35-induced […] cells assessed as cell viability at 10 uM preincubated for 2 hrs prior Abeta25-35 challenge measured after 24 hrs by MTT assay; type: functional; details: Rattus norvegicus, read-out: Activity
PC-12 [6] = experiment: Cytotoxicity against […] cells at 10 uM after 24 hrs by MTT assay; type: cell-based; details: rat, pc-12, 24 h
PC-12 [7] = experiment: Neuroprotective activity against H2O2-induced […] cells assessed as cell viability at 10 uM preincubated for 2 hrs prior H2O2 challenge measured after 24 hrs by MTT assay; type: functional; details: Rattus norvegicus, read-out: Activity
PC-12 [8] = experiment: Cytotoxicity against […] cells at 1 uM after 24 hrs by MTT assay; type: cell-based; details: rat, pc-12, 24 h
SH-SY5Y [9] = experiment: Neuroprotective activity against oxygen-glucose deprivation-induced human SH-SY5Y cells assessed as cell viability at 10 uM preincubated for 2 hrs prior oxygen-glucose deprivation challenge for 1 hr measured after 24 hrs incubation under normal condition by MTT assay; type: functional; details: read-out: Activity

solubility [1] | solubility [2] | SMILES | Activity (PC-12 [4]) | viability at 10 µM (PC-12 [5]) [%] | Activity (PC-12 [6]) | viability at 1 µM (PC-12 [4]) [%] | Activity (PC-12 [8]) | also measured
Insoluble | Insoluble | C[C@]12CC[C@H]3[C@@H](CC=C4C[C@@H](O)CC[C@@]43C)[C@@H]1CC[C@@H]2C(=O)/C=C/c1ccc(C#N)cc1 | – | – | – | – | – | –
– | – | Cc1ccccc1/C=C/C(=O)[C@H]1CC[C@H]2[C@@H]3CC=C4C[C@@H](O)CC[C@]4(C)[C@H]3CC[C@]12C | inactive | 50.4 | Toxic | – | – | viability at 5 µM (SH-SY5Y [3]): 84.8%
– | – | COc1ccccc1/C=C/C(=O)[C@H]1CC[C@H]2[C@@H]3CC=C4C[C@@H](O)CC[C@]4(C)[C@H]3CC[C@]12C | – | 74.5 | – | 64.1 | – | viability at 10 µM (PC-12 [7]): 83.7%
– | – | CCOc1ccccc1/C=C/C(=O)[C@H]1CC[C@H]2[C@@H]3C[C@@H]4O[C@@]45C[C@@H](O)CC[C@]5(C)[C@H]3CC[C@]12C | inactive | 49.5 | Toxic | – | – | viability at 5 µM (SH-SY5Y [3]): 98.8%
– | – | C[C@]12CC[C@H]3[C@@H](CC=C4C[C@@H](O)CC[C@@]43C)[C@@H]1CC[C@@H]2C(=O)/C=C/c1ccco1 | – | 36.9 | Toxic | 52.5 | Toxic | –
– | – | C[C@]12CC[C@H]3[C@@H](C[C@@H]4O[C@@]45C[C@@H](O)CC[C@]35C)[C@@H]1CC[C@@H]2C(=O)/C=C/c1ccc(Br)cc1 | – | 32.5 | Toxic | 50.1 | Toxic | –
– | – | COc1ccccc1/C=C/C(=O)[C@H]1CC[C@H]2[C@@H]3C[C@@H]4O[C@@]45C[C@@H](O)CC[C@]5(C)[C@H]3CC[C@]12C | inactive | 73.7 | – | – | – | viability at 10 µM (SH-SY5Y [9]): 98.7%
– | – | C[C@]12CC[C@H]3[C@@H](CC=C4C[C@@H](O)CC[C@@]43C)[C@@H]1CC[C@@H]2C(=O)/C=C/c1cccc([N+](=O)[O-])c1 | – | 37.8 | Toxic | 51.2 | Toxic | –
Insoluble | Insoluble | C[C@]12CC[C@H]3[C@@H](CC=C4C[C@@H](O)CC[C@@]43C)[C@@H]1CC[C@@H]2C(=O)/C=C/c1ccc(Br)cc1 | – | – | – | – | – | –

SMILES | solubility [1] | solubility [2] | Activity (PC-12 [4]) | viability at 10 µM (PC-12 [5]) [%] | Activity (PC-12 [6]) | viability at 1 µM (PC-12 [4]) [%] | Activity (PC-12 [8]) | also measured
C[C@]12CC[C@H]3[C@@H](CC=C4C[C@@H](O)CC[C@@]43C)[C@@H]1CC[C@@H]2C(=O)/C=C/c1ccc(Cl)cc1 | Insoluble | Insoluble | – | – | – | – | – | –
